Results reported in US10428083B2, “Heterocyclylmethyl-thienouracile as antagonists of the adenosine-A2B-receptor” (BAYER PHARMA AKTIENGESELLSCHAFT, priority 2015, dated 2019).

Target: human adenosine A2b receptor (Homo sapiens (Human), UniProt P29275)
Test: Cellular in vitro reporter gene test for A2b receptor activity (CHO-K1, CRE-luciferase, NECA stimulation)
Type: cell-based
Details: recombinant CHO-K1 cell line, CRE-luciferase reporter, antagonism of EC50 concentration of NECA; in some cases means of several determinations, rounded to two significant figures; read-out: A2b receptor IC50
How it was run: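 CHO-K1 cells with CRE-driven luciferase; antagonists co-incubated with NECA at its EC50, determined in a pre-experiment on each test day. Luciferase read by luminescence 3 h after NECA addition.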

Sequence of human adenosine A2b receptor (P29275 whole entry): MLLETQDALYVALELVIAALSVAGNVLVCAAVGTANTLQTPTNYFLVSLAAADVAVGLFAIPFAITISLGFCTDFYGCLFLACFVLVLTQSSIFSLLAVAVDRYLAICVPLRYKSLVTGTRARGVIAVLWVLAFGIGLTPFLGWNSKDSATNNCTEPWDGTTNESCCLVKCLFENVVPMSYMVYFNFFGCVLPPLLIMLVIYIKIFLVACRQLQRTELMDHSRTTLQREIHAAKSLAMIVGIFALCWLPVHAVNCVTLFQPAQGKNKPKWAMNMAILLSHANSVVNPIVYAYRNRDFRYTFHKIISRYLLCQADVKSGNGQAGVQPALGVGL

| SMILES | IC50 [nM] |
| --- | --- |
| COCCn1c(=O)n(CC2COC2)c(=O)c2c(C)c(CN3CCNC3=O)sc21 [Example 335, 1-(2-Methoxyethyl)-5-methyl-3-(oxetan-3-ylmethyl)-6-[(2-oxoimidazolidin-1-yl)methyl]thieno[2,3-d]pyrimidine-2,4(1H,3H)-dione] | 270 |
| Cc1c(CN2CCNC2=NC#N)sc2c1c(=O)n(C(C)C)c(=O)n2CC1CCO1 (single isomer, unassigned) [Example 265, [1-{[3-Isopropyl-5-methyl-1-(oxetan-2-ylmethyl)-2,4-dioxo-1,2,3,4-tetrahydrothieno[2,3-d]pyrimidin-6-yl]methyl}imidazolidin-2-ylidene]cyanamide] | 14 |
| COCCn1c(=O)n(C(C)C(F)(F)F)c(=O)c2c(C)c(CN3CCNC(=O)C3=O)sc21 (racemic) [Example 491, 6-[(2,3-Dioxopiperazin-1-yl)methyl]-1-(2-methoxyethyl)-5-methyl-3-(1,1,1-trifluoropropan-2-yl)thieno[2,3-d]pyrimidine-2,4(1H,3H)-dione] | 52 |
| COCCn1c(=O)c2c(C)c(Cn3[nH]ccc3=O)sc2n(CC2CCCO2)c1=O (racemic) [Example 289, 3-(2-Methoxyethyl)-5-methyl-6-[(5-oxo-2,5-dihydro-1H-pyrazol-1-yl)methyl]-1-(tetrahydrofuran-2-ylmethyl)thieno[2,3-d]pyrimidine-2,4(1H,3H)-dione] | 180 |
| COCCn1c(=O)n(CC2CC2(F)F)c(=O)c2c(C)c(CN3CCNC3=O)sc21 (racemic) [Example 323, 3-[(2,2-Difluorocyclopropyl)methyl]-1-(2-methoxyethyl)-5-methyl-6-[(2-oxoimidazolidin-1-yl)methyl]thieno[2,3-d]pyrimidine-2,4(1H,3H)-dione] | 34 |
| Cc1c(CN2CCNC2=NC#N)sc2c1c(=O)n(CC(F)(F)F)c(=O)n2CC1CCCO1 (racemic) [Example 269, [1-{[5-Methyl-2,4-dioxo-1-(tetrahydrofuran-2-ylmethyl)-3-(2,2,2-trifluoroethyl)-1,2,3,4-tetrahydrothieno[2,3-d]pyrimidin-6-yl]methyl}imidazolidin-2-ylidene]cyanamide] | 24 |
| Cc1c(CN2CCNC2=O)sc2c1c(=O)n(C(C)C)c(=O)n2CC1CCO1 (racemic) [Example 183, 3-Isopropyl-5-methyl-1-(oxetan-2-ylmethyl)-6-[(2-oxoimidazolidin-1-yl)methyl]thieno[2,3-d]pyrimidine-2,4(1H,3H)-dione] | 17 |
| CCn1c(=O)c2c(C)c(CN3CCN(C(C)C)C3=S)sc2n(CCOC)c1=O [Example 174, 3-Ethyl-6-[(3-isopropyl-2-thioxoimidazolidin-1-yl)methyl]-1-(2-methoxyethyl)-5-methylthieno[2,3-d]pyrimidine-2,4(1H,3H)-dione] | 49 |
| Cc1c(CN2CCNC(=O)C2=O)sc2c1c(=O)n(C(C)C(F)(F)F)c(=O)n2CCC(F)(F)F (racemic) [Example 490, 6-[(2,3-Dioxopiperazin-1-yl)methyl]-5-methyl-3-(1,1,1-trifluoropropan-2-yl)-1-(3,3,3-trifluoropropyl)thieno[2,3-d]pyrimidine-2,4(1H,3H)-dione] | 19 |
| CCn1c(=O)c2c(C)c(Cn3nc[nH]c3=O)sc2n(CCOC)c1=O [Example 114, 3-Ethyl-1-(2-methoxyethyl)-5-methyl-6-[(5-oxo-4,5-dihydro-1H-1,2,4-triazol-1-yl)methyl]thieno[2,3-d]pyrimidine-2,4(1H,3H)-dione] | 39 |
| Cc1c(CN2CCNC(=O)C2=O)sc2c1c(=O)n(CC(F)(F)F)c(=O)n2CC1CCO1 (racemic) [Example 123, 6-[(2,3-Dioxopiperazin-1-yl)methyl]-5-methyl-1-(oxetan-2-ylmethyl)-3-(2,2,2-trifluoroethyl)thieno[2,3-d]pyrimidine-2,4(1H,3H)-dione] | 53 |
| Cc1c(Cn2nc[nH]c2=O)sc2c1c(=O)n(C(C)C)c(=O)n2CC1CCCO1 (racemic) [Example 424, 3-Isopropyl-5-methyl-6-[(5-oxo-4,5-dihydro-1H-1,2,4-triazol-1-yl)methyl]-1-(tetrahydrofuran-2-ylmethyl)thieno[2,3-d]pyrimidine-2,4(1H,3H)-dione] | 88 |
| COCCn1c(=O)n(CC=C(C)C)c(=O)c2c(C)c(CN3CCNC3=O)sc21 [Example 203, 1-(2-Methoxyethyl)-5-methyl-3-(3-methylbut-2-en-1-yl)-6-[(2-oxoimidazolidin-1-yl)methyl]thieno[2,3-d]pyrimidine-2,4(1H,3H)-dione] | 57 |
| COC(C)(C)Cn1c(=O)c2c(C)c(CN3CCNC3=S)sc2n(CCCF)c1=O [Example 171, 1-(3-Fluoropropyl)-3-(2-methoxy-2-methylpropyl)-5-methyl-6-[(2-thioxoimidazolidin-1-yl)methyl]thieno[2,3-d]pyrimidine-2,4(1H,3H)-dione] | 13 |
| C=CCn1cnn(Cc2sc3c(c2C)c(=O)n(CC)c(=O)n3CCOC(F)(F)F)c1=O [Example 111, 6-[(4-Allyl-5-oxo-4,5-dihydro-1H-1,2,4-triazol-1-yl)methyl]-3-ethyl-5-methyl-1-[2-(trifluoromethoxy)ethyl]thieno[2,3-d]pyrimidine-2,4(1H,3H)-dione] | 21 |
| Cc1c(CN2CCNC2=O)sc2c1c(=O)n(C(C)C)c(=O)n2CC1COC1 [Example 189, 3-Isopropyl-5-methyl-1-(oxetan-3-ylmethyl)-6-[(2-oxoimidazolidin-1-yl)methyl]thieno[2,3-d]pyrimidine-2,4(1H,3H)-dione] | 17 |
| CCn1c(=O)c2c(C)c(Cn3[nH]ccc3=O)sc2n(CCC(F)(F)F)c1=O [Example 127, 3-Ethyl-5-methyl-6-[(5-oxo-2,5-dihydro-1H-pyrazol-1-yl)methyl]-1-(3,3,3-trifluoropropyl)thieno[2,3-d]pyrimidine-2,4(1H,3H)-dione] | 5.6 |
| Cc1c(CN2CCNC2=O)sc2c1c(=O)n(CC(F)F)c(=O)n2CC1COC1 [Example 222, 3-(2,2-Difluoroethyl)-5-methyl-1-(oxetan-3-ylmethyl)-6-[(2-oxoimidazolidin-1-yl)methyl]thieno[2,3-d]pyrimidine-2,4(1H,3H)-dione] | 13 |
| Cc1c(Cn2nc[nH]c2=O)sc2c1c(=O)n(CC(C)(C)C)c(=O)n2CCC(F)(F)F [Example 427, 3-(2,2-Dimethylpropyl)-5-methyl-6-[(5-oxo-4,5-dihydro-1H-1,2,4-triazol-1-yl)methyl]-1-(3,3,3-trifluoropropyl)thieno[2,3-d]pyrimidine-2,4(1H,3H)-dione] | 37 |

Results, then the molecule that gave them:

| IC50 [nM] | SMILES |
| --- | --- |
| 2.7 | CCn1c(=O)c2c(C)c(CN3CCNS3(=O)=O)sc2n(CCC(F)(F)F)c1=O [Example 27, 6-[(1,1-Dioxido-1,2,5-thiadiazolidin-2-yl)methyl]-3-ethyl-5-methyl-1-(3,3,3-trifluoropropyl)thieno[2,3-d]pyrimidine-2,4(1H,3H)-dione] |
| 3.2 | Cc1c(CN2CCNC2=O)sc2c1c(=O)n(CC(C)C)c(=O)n2CCCF [Example 192, 1-(3-Fluoropropyl)-3-isobutyl-5-methyl-6-[(2-oxoimidazolidin-1-yl)methyl]thieno[2,3-d]pyrimidine-2,4(1H,3H)-dione] |
| 3.6 | COCCn1c(=O)n(CC(C)C)c(=O)c2c(C)c(CN3CCNC3=S)sc21 [Example 39, 3-Isobutyl-1-(2-methoxyethyl)-5-methyl-6-[(2-thioxoimidazolidin-1-yl)methyl]thieno[2,3-d]pyrimidine-2,4(1H,3H)-dione] |
| 3.3 | CCn1c(=O)c2c(C)c(CN3CCCN(C)C3=O)sc2n(CCC(F)(F)F)c1=O [Example 108, 3-Ethyl-5-methyl-6-[(3-methyl-2-oxotetrahydropyrimidin-1(2H)-yl)methyl]-1-(3,3,3-trifluoropropyl)thieno[2,3-d]pyrimidine-2,4(1H,3H)-dione] |
| 8.8 | COC(=O)N=C1NCCN1Cc1sc2c(c1C)c(=O)n(CC(F)(F)F)c(=O)n2CC1CCCO1 (single isomer, unassigned) [Example 469, Methyl [1-{[5-methyl-2,4-dioxo-1-(tetrahydrofuran-2-ylmethyl)-3-(2,2,2-trifluoroethyl)-1,2,3,4-tetrahydrothieno[2,3-d]pyrimidin-6-yl]methyl}imidazolidin-2-ylidene]carbamate] |
| 41 | Cc1c(CN2CCNC(=O)C2=O)sc2c1c(=O)n(C(C)C)c(=O)n2CCC(F)(F)F [Example 478, 6-[(2,3-Dioxopiperazin-1-yl)methyl]-3-isopropyl-5-methyl-1-(3,3,3-trifluoropropyl)thieno[2,3-d]pyrimidine-2,4(1H,3H)-dione] |
| 3.6 | COC(C)Cn1c(=O)c2c(C)c(CN3CCNC3=NC#N)sc2n(CCC(F)(F)F)c1=O (single isomer, unassigned) [Example 455, [1-{[3-(2-Methoxypropyl)-5-methyl-2,4-dioxo-1-(3,3,3-trifluoropropyl)-1,2,3,4-tetrahydrothieno[2,3-d]pyrimidin-6-yl]methyl}imidazolidin-2-ylidene]cyanamide] |
| 3.4 | COC(=O)N=C1NCCN1Cc1sc2c(c1C)c(=O)n(CC(C)OC)c(=O)n2CCC(F)(F)F (single isomer, unassigned) [Example 473, Methyl [1-{[3-(2-methoxypropyl)-5-methyl-2,4-dioxo-1-(3,3,3-trifluoropropyl)-1,2,3,4-tetrahydrothieno[2,3-d]pyrimidin-6-yl]methyl}imidazolidin-2-ylidene]carbamate] |
| 6.7 | Cc1c(CN2CCNC2=O)sc2c1c(=O)n(CC(C)C)c(=O)n2CCF [Example 88, 1-(2-Fluoroethyl)-3-isobutyl-5-methyl-6-[(2-oxoimidazolidin-1-yl)methyl]thieno[2,3-d]pyrimidine-2,4(1H,3H)-dione] |
| 7 | Cc1c(CN2CCNC2=S)sc2c1c(=O)n(CC(F)(F)F)c(=O)n2CCCF [Example 40, 1-(3-Fluoropropyl)-5-methyl-6-[(2-thioxoimidazolidin-1-yl)methyl]-3-(2,2,2-trifluoroethyl)thieno[2,3-d]pyrimidine-2,4(1H,3H)-dione] |
